The subject of the assay is Mus musculus. Put plainly: Antiinflammatory activity in BALB/c mouse assessed as inhibition of heat killed Propionibacterium acnes-induced neutrophil influx at 300 pg, ip administered 12 hrs after Propionibacterium acnes stimulation and measured after 24 hrs by flow cytometry analysis. It counts as functional. Background: A flow cytometer gives signals particle by particle.

Active and inactive are the calls of the source. The calls are words filed in the database; no cut-off is given here.

Data on five molecules can be found in ChEMBL document CHEMBL4715926, “Synthesis of Resolvin E1 and Its Conformationally Restricted Cyclopropane Congeners with Potent Anti-Inflammatory Effect” (2021).

Take `CC[C@@H](O)/C=C/C=C\C[C@@H](O)/C=C/C=C/C=C\[C@@H](O)[C@H]1C[C@@H]1C(=O)O`: the “inhibition (INH)” value amounted to 50%.

As to `CC[C@@H](O)/C=C/C=C\C[C@@H](O)/C=C/C=C/C=C\[C@@H](O)[C@@H]1C[C@@H]1C(=O)O`, the inhibition result is “Active”.

In the case of `CC[C@@H](O)/C=C/C=C\C[C@@H](O)/C=C/C=C/C=C\[C@@H](O)CCCC(=O)O` [RESOLVIN E1], the “inhibition (INH)” value worked out at 31%.

With `CC[C@@H](O)/C=C/C=C\C[C@@H](O)/C=C/C=C/C=C\[C@@H](O)[C@@H]1C[C@H]1C(=O)O`, the inhibition result was “Active”.

On to `CC[C@@H](O)/C=C/C=C\C[C@@H](O)/C=C/C=C/C=C\[C@@H](O)[C@H]1C[C@H]1C(=O)O`, for which the inhibition result was “Active”.
